# Patent publication US20240058460A1, “METHODS AND COMPOUNDS FOR MODULATING HUNTINGTON'S DISEASE” (Design Therapeutics, Inc., priority 2022, published 2024)
# Assays:
# Type in all cases: cell-based
# [1] = tested on: human HTT C allele (SNP rs362331C/T) mRNA in GM09197 fibroblasts; experiment: HTT mRNA, allele-specific RT-PCR in GM09197 fibroblasts, C allele; conditions: for GM 09197 E min 48 Hr C Allele (%): lowest % HTT observed at 0.5 nM to 1000 nM compound; for IC50: Homo sapiens, Fibroblast, 48 hr, C allele HTT mRNA normalized to GAPDH, relative to vehicle
# Description: (§1) Molecular Biology Toolkit: • qPCR primer probe sets: • RNA input normalization was assessed utilizing human glyceraldehyde 3-phosphate dehydrogenase (hGAPDH) TaqMan assay (ThermoFisher cat #4351370) or Human Cyclophillin ([…]) TaqMan assay (ThermoFisher cat #4351372) • Total HTT detection was assessed utilizing human Htt TaqMan assay (ThermoFisher cat #4331182) • Allele-specific detection of human HTT expression in HD cells containing the SNP rs362331C/T (Exon 50): for each assay, allele-specific probes to detect the SNP variant contained locked nucleic acid bases to improve allele discrimination, as compared to unmodified DNA probes. • 362331-F (331 forward primer) • 362331-R (331 reverse primer) • 362331-C probe: TCC CTC ATC+C+AC TGT GT • 362331-T probe: CTC+A+T+C+T+A+C TGT GT • qPCR was performed using Agpath ID one-step reverse transcriptase polymerase chain reaction (RT-PCR) reagent
# (§2) Screening of HD molecules methods: GM09197 and/or GM04022 fibroblasts were cultured in T175 flasks incubated at 37° C. and 5% CO2. Once confluency was reached, the media was removed, the cells were washed with 1×PBS, and cells were dissociated using TrypLE™ Express Enzyme. Media was added to the enzyme and collected into a 15-mL conical tube and centrifuged at 500×g for 5 minutes to pellet the cells. Media and enzyme were aspirated using a serological pipette. Cells were resuspended in fresh media and counted using a Countess 3 Automated Cell Counter. Cells were plated at a density of 15,000 cells/well in a tissue culture-treated polystyrene 96-well dish and incubated at 37° C. and 5% CO2 overnight. The next day, media was removed using an 8-channel aspirator. 200 μL media/well are added back into the plate. The molecules are formulated to 1 mM and are dispensed using a Multidrop™ Pico 8 Digital Dispenser. After a 48-hour incubation with compounds, media was removed from plates, cells were washed with 1×PBS, and cells were lysed in 40 μL per well guanidinium thiocyanate buffer. RNA was isolated and purified in 382-well glass fiber column plates using chaotropic salts. Human mtHTT, wtHTT, and GAPDH mRNA were measured via RT-PCR using the ThermoFisher QuantStudio™ 7 Flex System in 384-well format. Results of HTT levels were normalized to GAPDH mRNA levels. Normalized HTT mRNA levels were expressed relative to vehicle-treated samples to assess fold change after molecule treatment.
# (§3) Emin for each compound is the lowest % HTT concentration observed within a compound concentration of 0.5 nM to 1000 nM.
# [2] = tested on: human HTT T allele (SNP rs362331C/T) mRNA in GM09197 fibroblasts; experiment: HTT mRNA, allele-specific RT-PCR in GM09197 fibroblasts, T allele; conditions: for IC50: Homo sapiens, Fibroblast, 48 hr, T allele HTT mRNA normalized to GAPDH, relative to vehicle; for Gm09197 Emin 48 hr T Allele (%): lowest % HTT observed at 0.5 nM to 1000 nM compound
# Description: as §1, §2, §3
# [3] = tested on: human HTT C allele (SNP rs362331C/T) mRNA in GM04022 fibroblasts; experiment: HTT mRNA, allele-specific RT-PCR in GM04022 fibroblasts, C allele; conditions: for GM 04022Emin 48 hr C Allele: lowest % HTT observed at 0.5 nM to 1000 nM compound
# Description: as §1
# as §2, with “After a 48-hour incubation with compounds, media was removed from plates, cells were washed with 1×PBS, and cells were lysed in 40 μL per well guanidinium thiocyanate buffer. RNA was isolated and purified in 382-well glass fiber column plates using chaotropic salts.” left out, “Results of HTT levels were normalized to GAPDH mRNA levels. Normalized HTT mRNA levels were expressed relative to vehicle-treated samples to assess fold change after molecule treatment.” left out
# [4] = tested on: human HTT T allele (SNP rs362331C/T) mRNA in GM04022 fibroblasts; experiment: HTT mRNA, allele-specific RT-PCR in GM04022 fibroblasts, T allele; conditions: for IC50: Homo sapiens, Fibroblast, 48 hr, T allele HTT mRNA normalized to GAPDH, relative to vehicle; for GM04022 Emin 48 hr T Allele: lowest % HTT observed at 0.5 nM to 1000 nM compound
# Description: as §1, §2, §3
Compound,GM 09197 E min 48 Hr C Allele (%) [1],IC50 [2],Gm09197 Emin 48 hr T Allele (%) [2],GM 04022Emin 48 hr C Allele [3],IC50 [4],GM04022 Emin 48 hr T Allele [4],IC50 [1],"IC50 ([3]; Homo sapiens, Fibroblast, 48 hr, C allele HTT mRNA normalized to GAPDH, relative to vehicle)"
Cn1cc(NC(=O)c2nc(NC(=O)CCNC(=O)c3cc(NC(=O)c4nccn4C)cn3C)cn2C)cc1C(=O)NCCCC(=O)Nc1cn(C)c(C(=O)NCCC(=O)Nc2cc(C(=O)Nc3cn(C)c(C(=O)NCCC(=O)NCCOCCOCCOCCOCCOCCOCCOCCOCCOCCOCCOCCOCCOCCOCCOCCOc4ccc(NC(=O)c5cc6c(-c7cc(S(C)(=O)=O)ccc7Oc7ccc(F)cc7F)cn(C)c(=O)c6[nH]5)cc4)n3)n(C)c2)n1 [Compound A-2],A (A>90%),0.032 µM,C (C<80%),A (A>90%),> 1 µM,C (C<80%),,
CC(=O)N1c2ccc(-c3ccn(-c4ccc(OCCOCCOCCOCCOCCOCCOCCOCCOCCNC(=O)CCNC(=O)c5nc(NC(=O)c6cc(NC(=O)CCNC(=O)c7nc(NC(=O)CCCNC(=O)c8cc(NC(=O)c9nc(NC(=O)CCNC(=O)c%10cc(NC(=O)c%11nccn%11C)cn%10C)cn9C)cn8C)cn7C)cn6C)cn5C)cc4)n3)cc2[C@H](Nc2ccc(C#N)cc2)C[C@@H]1C [Compound A-59],,> 1 µM,,,,,> 1 µM,
CCNS(=O)(=O)c1ccc(Oc2ccc(OCCOCCOCCOCCOCCOCCOCCOCCOCCOCCOCCOCCOCCOCCOCCOCCNC(=O)CCNC(=O)c3nc(NC(=O)c4cc(NC(=O)CCNC(=O)c5nc(NC(=O)CCCNC(=O)c6cc(NC(=O)c7nc(NC(=O)CCNC(=O)c8cc(NC(=O)c9nccn9C)cn8C)cn7C)cn6C)cn5C)cn4C)cn3C)cc2F)c(-c2cn(C)c(=O)c3[nH]ccc23)c1 [Compound A-68],A (A>90%),0.017 µM,C (C<80%),,,,,
CCS(=O)(=O)Nc1ccc(Oc2ccc(F)cc2F)c(-c2cn(C)c(=O)c3[nH]c(C(=O)Nc4ccc(OCCOCCOCCOCCOCCOCCOCCOCCOCCOCCOCCOCCOCCOCCOCCOCCNC(=O)CCNC(=O)c5nc(NC(=O)c6cc(NC(=O)CCNC(=O)c7nc(NC(=O)OCCNC(=O)c8cc(NC(=O)c9nc(NC(=O)CCNC(=O)c%10cc(NC(=O)c%11nccn%11C)cn%10C)cn9C)cn8C)cn7C)cn6C)cn5C)cc4)cc23)c1 [Compound A-72],,> 1 µM,A (A>90%),,,,> 1 µM,
Cc1sc2c(c1C)C(c1ccc(Cl)cc1)=N[C@@H](CC(=O)Nc1ccc(OCCOCCOCCOCCOCCOCCOCCOCCOCCOCCOCCOCCOCCOCCOCCOCCNC(=O)CCNC(=O)c3nc(NC(=O)c4cc(NC(=O)CCNC(=O)c5nc(NC(=O)OCCNC(=O)c6cc(NC(=O)c7nc(NC(=O)CCNC(=O)c8cc(NC(=O)c9nccn9C)cn8C)cn7C)cn6C)cn5C)cn4C)cn3C)cc1)c1nnc(C)n1-2 [Compound A-73],A (A>90%),> 1 µM,A (A>90%),,,,> 1 µM,
CCS(=O)(=O)Nc1ccc(Oc2ccc(F)cc2F)c(-c2cn(C)c(=O)c3[nH]c(C(=O)Nc4ccc(OCCOCCOCCOCCOCCOCCOCCOCCOCCOCCOCCOCCOCCOCCOCCOCCNC(=O)CCNC(=O)c5nc(NC(=O)c6cc(NC(=O)CCNC(=O)c7nc(NC(=O)NCCNC(=O)c8cc(NC(=O)c9nc(NC(=O)CCNC(=O)c%10cc(NC(=O)c%11nccn%11C)cn%10C)cn9C)cn8C)cn7C)cn6C)cn5C)cc4)cc23)c1 [Compound A-74],,> 1 µM,A (A>90%),,,,> 1 µM,
Cc1sc2c(c1C)C(c1ccc(Cl)cc1)=N[C@@H](CC(=O)Nc1ccc(OCCOCCOCCOCCOCCOCCOCCOCCOCCOCCOCCOCCOCCOCCOCCOCCNC(=O)CCNC(=O)c3nc(NC(=O)c4cc(NC(=O)CCNC(=O)c5nc(NC(=O)NCCNC(=O)c6cc(NC(=O)c7nc(NC(=O)CCNC(=O)c8cc(NC(=O)c9nccn9C)cn8C)cn7C)cn6C)cn5C)cn4C)cn3C)cc1)c1nnc(C)n1-2 [Compound A-75],A (A>90%),> 1 µM,A (A>90%),,,,> 1 µM,
C/C=C/Cn1cc(-c2cc(OC)c(C(=O)N3CCN(CCOCCOCCOCCOCCOCCOCCOCCOCCOCCOCCOCCOCCOCCOCCOCCNC(=O)CCNC(=O)c4nc(NC(=O)c5cc(NC(=O)CCNC(=O)c6nc(NC(=O)CCCNC(=O)c7cc(NC(=O)c8nc(NC(=O)CCNC(=O)c9cc(NC(=O)c%10nccn%10C)cn9C)cn8C)cn7C)cn6C)cn5C)cn4C)CC3)cc2OC)c2cc[nH]c2c1=O [Compound A-76],A (A>90%),> 1 µM,A (A>90%),A (A>90%),> 1 µM,A (A>90%),> 1 µM,> 1 µM
